From US10323254B2, “Method for regulating plant growth” (RIKEN, priority 2015, dated 2019)

System: BSS1-GFP
Assay: Fluorescence microscopy of punctate BSS1-GFP in transgenic seedlings
Format: in vivo, Arabidopsis thaliana
Details: root cells of BSS1-GFP plants treated with 50 μM BFA for 1 hour
Method: FIGS. 5C to 5E show analysis of BSS1-GFP puncta signal intensities upon treatment with Brz and BL. Seven-day-old BSS1-GFP transgenic seedlings were treated for 3 hours with 3 μM Brz (Brz), an equal volume of DMSO (Mock), or 100 μM BL (BL). […] The results are represented as the mean±s.d. The signal intensity was measured using ImageJ software. […]
The plants that were transformed with the CaMV35S-BSS1-GFP construct BSS1(-GFP)-OX and the CaMV35S-BIL1-GFP construct BIL1-GFP-OX were observed via confocal laser scanning microscopy with a BX60 fluorescence microscope (Olympus) equipped with a Model CSU10 confocal scanner (Yokogawa Electric) and LSM700 (Zeiss).
FM4-64 (Molecular Probes) dissolved in water was applied to Arabidopsis plants at a final concentration of 4 μM for 3 minutes. The plants were washed with water to remove the excessive amount of the stain and observed. A DMSO-base stock solution of Brefeldin A (BFA) (Sigma) was applied to the cells at a final concentration of 50 μM for 1 hour.
The images were analyzed using ImageJ software. To measure the ratio of the nuclear and cytosolic signals of BIL1-GFP for each cell, the signal intensities in the nucleus and cytosol were calculated from the mean of the intensity in each area. The nuclear to cytosolic signal ratio was then calculated for each cell. The average nuclear/cytosolic signal ratio and standard error were calculated from measurements of at least 54 cells from each line (FIG. 9B). Line scan measurements from the vacuole to the nucleus through the cytosol were performed, and representative plot profiles of sample measurements are presented in FIG. 5C.

C[C@H]1CCC/C=C/[C@@H]2C[C@H](O)C[C@H]2[C@H](O)/C=C/C(=O)O1 [BFA, Brefeldin A]
formation of punctate BSS1: not inhibited
